Test: Storage stability of crystalline SN38
Format: physicochemical
Conditions: 25° C. and 70% relative humidity for one year

For CCc1c2c(nc3ccc(O)cc13)-c1cc3c(c(=O)n1C2)COC(=O)C3(O)CC (stereo not shown) [crystalline SN38, 7-ethyl-10-hydroxycamptothecin], the stability on storage was “stable”.
